We go through 120 compounds from a melting point compilation (Tetko et al.).

Structures are written as SMILES. A value given as a limit tells only on which side of the number the result lay.

For orientation: melting point means the temperature, or range, at which the solid turns liquid.

Compound `CN(CC(=O)O)C(=O)c1ccsc1` yielded a melting point of 56 to 57 °C.
The compound `COc1ccc(S(=O)(=O)NCC(=O)O)cc1OC` yielded a melting point of 173 to 175 °C.
`CCOc1ccc(C2CCCN2)cc1` (stereo not given) gave a melting point below 17 °C.
In turn, `Clc1ncnc2c1oc1ccccc12` displayed a melting point of 144 to 146 °C.
On to `O=C(O)c1ccc2ccc(Cl)cc2n1`, for which the melting point was in the range of 179 to 181 °C.
Regarding `Nc1cc(-c2cccc(Cl)c2Cl)[nH]n1`, the melting point fell in the range of 110 to 112 °C.
With `CC1(c2ccncc2)NC(=O)NC1=O` (stereo not given), the melting point was in the range of 231 to 233 °C.
For the compound `Cc1cc([N+](=O)[O-])ccc1S(N)(=O)=O`, the melting point lay within 155 to 157 °C.
In turn, `Cc1ccc(C(C)(C)C(=O)O)cc1` gave a melting point of 76 to 78 °C.
`COc1cc(OC)c(N(C)S(=O)(=O)c2cccc(C(=O)O)c2)cc1Cl` displayed a melting point of 208 to 210 °C.
The result for `O=C(O)c1cccn2ccnc12` reads 266 to 268 °C; that for `CS(=O)(=O)Nc1cc(Br)ccc1F`, 143 to 145 °C.
Regarding `CC(C)C(Br)C(=O)N1CCc2ccccc21` (stereo not given), the melting point was 111 to 113 °C.
As to `CN(C)S(=O)(=O)c1cccc(CCl)c1`, the melting point fell in the range of 45 to 47 °C.
Turning to `Cc1cc(C(=O)CCl)c(C)n1-c1ccccn1`, the melting point was 76 to 78 °C.
Regarding `Cc1ccc(N2C(=O)NC(CCC(=O)O)C2=O)cc1Cl` (stereo not given), the melting point lay in the range of 193 to 195 °C.
The result for `CC(O)c1cc[nH]n1` (stereo not given) reads 58 to 60 °C; that for `CC(Cl)C(=O)Nc1ccc([N+](=O)[O-])cc1` (stereo not given), 138 to 140 °C.
Regarding `NCC(O)c1cccc(OCc2ccccc2)c1` (stereo not given), the melting point lay in the range of 107 to 109 °C.
The compound `Nc1ccc(S(=O)(=O)Nc2ccc(Cl)c(Cl)c2)cc1` gave a melting point of 223 to 225 °C.
With `CC(C)(C)OC(=O)N1CCN(C(N)=O)C(C(=O)O)C1` (stereo not given), the melting point lay within 158 to 160 °C.
In turn, `COC(=O)CCNc1nc2ccccc2o1` gave a melting point of 108 to 110 °C.
In the case of `Cc1cc(S(N)(=O)=O)c(F)cc1F` it was 97 to 99 °C; in that of `COc1ccc(Cl)cc1C(C)=O`, 33 to 35 °C.
The compound `CC(C)c1cnc(S)n1C(C)C` had a melting point of 177 to 179 °C.
With `CC(C)CC(=O)NCCc1ccc(S(=O)(=O)Cl)s1`, the melting point is 79 to 81 °C.
The compound `O=C1CC(N2CCCC2)C(=O)N1` (stereo not given) displayed a melting point of 123 to 125 °C.
In the case of `COc1ccc(-c2nn(-c3ccccc3)cc2C(=O)O)cc1` it was 244 to 246 °C.
Compound `Sc1nnc(C2CC2)n1Cc1ccccc1` yielded a melting point of 176 to 178 °C.
Regarding `O=C1CNC(=O)c2sccc2N1`, the melting point was 239 to 241 °C.
Compound `CC(C)(CO)Nc1ccc(Br)cn1` gave a melting point of 103 to 105 °C.
The compound `N#CCOc1ccc(N)cc1` returned a melting point of 51 to 53 °C.
`CCc1cc(OCC(=O)O)ccc1Cl`: the melting point was in the range of 143 to 145 °C.
In the case of `O=C(CCl)c1cn(-c2cccc(C(F)(F)F)c2)nn1` it was 162 to 164 °C; in that of `CCC1Cc2c(Br)cccc2C(=O)N1` (stereo not given), 101 to 103 °C; in that of `CCc1noc(CC)c1CC(=O)O`, 73 to 75 °C.
Turning to `CC(C)(C)C(Br)C(=O)O` (stereo not given), the melting point was in the range of 62 to 64 °C.
`CC(C)(C)c1c(C(=O)O)nnn1-c1ccc(Cl)cc1F` yielded a melting point of 152 to 154 °C.
Consider `COc1cc(C(=O)O)c([N+](=O)[O-])cc1OCC#N`, for which the melting point is 149 to 151 °C.
The result for `CCC1CCc2[nH]c(=O)c(C#N)cc2C1` (stereo not given) reads 224 to 226 °C; that for `N#Cc1cc2c(nc1N)CCCC2`, 195 to 197 °C; that for `Cc1ccc(-c2nn(Cc3ccccc3)cc2C(=O)O)cc1C`, 155 to 157 °C.
In the case of `Cc1nc(-c2ccc(Br)cc2Cl)n[nH]1`, the melting point lay within 179 to 181 °C.
Compound `Sc1nnnn1CCc1ccccn1` came in with a melting point of 193 to 195 °C.
Take `COC1(OC)C2(Cl)C3C(=O)C4C5C(=O)C3C1(Cl)C5(Cl)C42Cl` (stereo not given): the melting point fell in the range of 155 to 157 °C.
The compound `CC1CCN(C(=O)CCl)c2ccccc2S1` (stereo not given) gave a melting point of 125 to 127 °C.
As to `Cc1c(Cl)cnc(NC(=O)CCl)c1Cl`, the melting point was 268 to 270 °C.
The compound `O=C(O)c1ccc(-c2ccc(F)cc2)cc1F` showed a melting point of 237 to 239 °C.
`O=C1CC2(CCSC2)C(=O)O1` (stereo not given) gave a melting point of 83 to 85 °C.
The result for `CC(=O)c1ccc(-c2ccc(C(=O)O)o2)cc1` reads 219 to 221 °C; that for `CC(C)S(=O)(=O)c1ccc(F)c(C(=O)O)c1`, 139 to 141 °C; that for `CC(=O)Nc1ccc(CO)cc1`, 117 to 119 °C.
Regarding `O=C(O)c1ccc(S(=O)(=O)NCc2ccco2)cc1`, the melting point fell in the range of 229 to 231 °C.
In turn, `COc1ccc2c(c1)C(=O)CCC2` displayed a melting point of 55 to 59 °C.
Compound `CNc1ncccc1C(=O)O` yielded a melting point of 220 to 222 °C.
In the case of `O=C(O)c1oc2ccccc2c1Cn1cccn1` it was 226 to 228 °C.
The compound `Cc1ccc(C(=O)O)c(O)c1C` yielded a melting point of 197 to 199 °C.
For the compound `CC(C)(C)OC(=O)N1C(C(=O)O)CC2CCCCC21` (stereo not given), the melting point lay in the range of 133 to 135 °C.
Compound `NCCCNc1ccc(C(F)(F)F)cn1` showed a melting point of 48 to 50 °C.
In the case of `COCC(C)n1cc(C(=O)O)c(C)n1` (stereo not given), the melting point lay within 114 to 116 °C.
With `Oc1ccc(Cl)cc1C(F)(F)F`, the melting point lay within 67 to 69 °C.
With `CC1(c2cccc(C#N)c2)NC(=O)NC1=O` (stereo not given), the melting point fell in the range of 202 to 204 °C.
In the case of `COC(=O)C(=O)CC(=O)c1ccc(N2CCOCC2)cc1`, the melting point lay within 164 to 166 °C.
`CC(C)(C)OC(=O)NCC1CC2CCCC(C1)N2` (stereo not given): the melting point fell in the range of 219 to 221 °C.
As to `Nc1c(-c2ccco2)nc2ccccn12`, the melting point was in the range of 165 to 167 °C.
For the compound `COc1cc(Cl)ccc1C(=O)NN`, the melting point lay within 178 to 180 °C.
`Cc1sc(=O)n(CC(=O)O)c1-c1ccc(F)cc1` returned a melting point of 139 to 141 °C.
The result for `CC(Cl)C(=O)Nc1ccc(F)c([N+](=O)[O-])c1` (stereo not given) reads 96 to 98 °C; that for `Sc1nnc(-c2ccccc2Br)o1`, 200 to 202 °C.
With `O=C(Nc1ccc(F)cc1)Nc1cccc(O)c1`, the melting point lay in the range of 214 to 216 °C.
In turn, `Cc1cc(C)n2ncc(C(=O)NCC(=O)O)c2n1` yielded a melting point of 244 to 246 °C.
The result for `COC(=O)c1ccc(S(=O)(=O)Cl)cc1` reads 65 to 70 °C.
The result for `CC(COc1ccccc1)C(=O)O` (stereo not given) reads 84 to 86 °C; that for `NS(=O)(=O)c1cccc2cccnc12`, 183 to 185 °C.
The result for `Nc1c(F)cccc1C(=O)O` reads 182 to 186 °C; that for `Nc1cccc(-c2c3c(=O)[nH][nH]c(=O)c3c3n2CCC3)c1`, 331 to 333 °C; that for `COc1cccc(Cc2nnc(N)s2)c1`, 104 to 106 °C.
`COC(=O)c1cc(S(=O)(=O)Cl)c(Br)cc1Cl` came in with a melting point of 135 to 137 °C.
Compound `O=C1CC(c2ccccc2)N1` (stereo not given) registered a melting point of 107 to 109 °C.
In the case of `CCOc1ccccc1-c1nn(C(C)(C)C)cc1C(=O)O` it was 207 to 209 °C.
In the case of `NC(CC(=O)NC1CCCC1)=NO`, the melting point fell in the range of 119 to 121 °C.
As for `COc1ccc(CNc2nccs2)cc1`, the melting point was in the range of 147 to 149 °C.
Compound `Nc1cc([N+](=O)[O-])ccc1OC(F)F` displayed a melting point of 75 to 77 °C.
`O=C(c1ccc(O)cc1)c1ccc(F)cc1`: the melting point fell in the range of 170 to 172 °C.
`COc1ccc(S(=O)(=O)Cl)cc1NC(C)=O` displayed a melting point of 145 to 147 °C.
Turning to `Cc1cccc(COc2cccc(C(=O)O)c2)c1`, the melting point fell in the range of 124 to 126 °C.
For `CC1CN(S(=O)(=O)Cl)CC(C)O1` (stereo not given), the melting point was 74 to 76 °C.
Consider `O=C1C=CC(=O)N1CCCN1CCOCC1`, for which the melting point lay within 39 to 41 °C.
In turn, `N#CCC(C(=O)O)c1ccccc1` (stereo not given) displayed a melting point of 64 to 66 °C.
In the case of `CC1(C)C(O)CC1O` (stereo not given) it was 104 to 106 °C; in that of `O=C(O)CNC(=O)Cn1cncn1`, 206 to 208 °C; in that of `CC(=O)N1CCCC(C(=O)O)C1` (stereo not given), 129 to 131 °C.
In turn, `O=C(O)c1ccc(=O)n(-c2ccccc2)n1` displayed a melting point of 208 to 210 °C.
Compound `O=C1C=CC(=O)N1CCc1ccccc1` came in with a melting point of 109 to 111 °C.
In turn, `CC(=O)NCC(=O)NCC(=O)O` gave a melting point of 174 to 176 °C.
`Cn1c(=O)c2cc(N)cnc2n(C)c1=O`: the melting point lay within 219 to 221 °C.
`Cn1ccnc1-c1ccc([N+](=O)[O-])cc1`: the melting point was 107 to 109 °C.
In the case of `O=C(Nc1cnccn1)C1CCNCC1` it was 131 to 133 °C; in that of `CCOC(=O)c1c(-c2ccccc2Cl)csc1N`, 65 to 73 °C; in that of `COC(=O)c1cc2c(Br)cccc2[nH]1`, 159 to 161 °C.
With `O=C(O)Cc1cn2ccsc2n1`, the melting point lay in the range of 180 to 184 °C.
As to `Nc1cc(C(=O)O)ccc1NCCCN1CCOCC1`, the melting point was 216 to 218 °C.
`COc1cc(C(=O)O)ccc1OC1CCCC1` gave a melting point of 153 to 155 °C.
In the case of `CCOC(=O)c1ccc(N2C(=O)Cc3ccccc3C2=O)cc1` it was 174 to 176 °C; in that of `Cc1ccc2ccccc2c1S(=O)(=O)Cl`, 76 to 78 °C.
Take `O=C(c1cccnc1Cl)N1CCCC1`: the melting point is 77 to 79 °C.
In turn, `Cc1cc(=O)oc2cc(OCC(=O)NN)ccc12` displayed a melting point of 179 to 181 °C.
`O=C(O)c1cc(C2CC2)nc2onc(-c3ccco3)c12`: the melting point was in the range of 211 to 213 °C.
As for `O=C(O)Cc1csc(NC(=O)NC2CC2)n1`, the melting point was 188 to 190 °C.
The compound `CCCOc1ccc(NS(C)(=O)=O)cc1` yielded a melting point of 118 to 120 °C.
On to `COc1ccc(C)cc1NCCC(=O)O`, for which the melting point lay within 77 to 79 °C.
In the case of `NC(=S)Nc1cccc2ncccc12`, the melting point is 223 to 225 °C.
Regarding `Cc1nnc(N2CCCC2)c(C(N)=O)c1C`, the melting point lay within 211 to 213 °C.
Regarding `O=CNc1ccc(C(=O)O)cc1`, the melting point was in the range of 264 to 266 °C.
As for `N#CCN(C(=O)c1ccccc1)C1CC1`, the melting point lay within 103 to 105 °C.
In turn, `O=C(O)c1cc2c(OC(F)(F)F)cccc2[nH]1` registered a melting point of 189 to 191 °C.
With `O=S1(=O)CCNCN1`, the melting point was in the range of 143 to 145 °C.
The compound `O=C(O)c1ccc2c(c1)-c1ccccc1C2` came in with a melting point of 264 to 266 °C.
Compound `FC(F)(F)CNc1nnc(S)s1` displayed a melting point of 178 to 180 °C.
For `O=C1NCCc2ccc(Br)cc21`, the melting point lay within 144 to 146 °C.
